Counter-ions that a name gives are not always drawn. Like-named read-outs stand apart in the source and are kept apart here.
What was measured:
[1] = target: T1, hSERT (5-HTT) in HEK293-hSERT cells (Homo sapiens, UniProt P31645); test: 5-HTT reuptake activity assay (fluorescence neurotransmitter transporter uptake kit); format: cell-based; conditions: serotonin reuptake inhibition
T1 construct: expressed in transfected cells; host or cells: HEK293

mice [2] = test: Tail suspension test (TST) in mice; format: in vivo; conditions: Mus musculus, ip
Procedure: (§1) 3. In Vivo Drug Efficacy Test (Mouse Forced Swimming Model)
(§2) Experimental animals: C57BL/6 mice (Shanghai Xipuer-Bikai Experimental Animal Co., Ltd.), male, 6 weeks old, weighing 15-20 g. ICR mice (Shanghai Xipuer-Bikai Experimental Animal Co., Ltd.), male, 6 weeks old, weighing 20-25 g. All the ordered mice were fed in a standard environment for 2-3 weeks before test.
Tail suspension test (TST): the mice were tail fixed to the apparatus with a medical tape for 6 min, the whole process was recorded by the camera. When analyzing the data, only the immobility time of the mice in the last 4 min was counted.
(§3) The results were analyzed by one-way analysis of variance. […] FST: Forced swimming test; TST: Tail suspension test.

[3] = target: T2, human recombinant 5-HT3 receptor (Homo sapiens, UniProt P46098); test: 5-HT3 receptor affinity assay (3H-BRL 43694 radioligand binding); conditions: read-out: inhibition (%) at 1 μM
T2 construct: expressed in transfected cells; host or cells: HEK293 (membrane preparation)
T2 sequence (P46098 24-478): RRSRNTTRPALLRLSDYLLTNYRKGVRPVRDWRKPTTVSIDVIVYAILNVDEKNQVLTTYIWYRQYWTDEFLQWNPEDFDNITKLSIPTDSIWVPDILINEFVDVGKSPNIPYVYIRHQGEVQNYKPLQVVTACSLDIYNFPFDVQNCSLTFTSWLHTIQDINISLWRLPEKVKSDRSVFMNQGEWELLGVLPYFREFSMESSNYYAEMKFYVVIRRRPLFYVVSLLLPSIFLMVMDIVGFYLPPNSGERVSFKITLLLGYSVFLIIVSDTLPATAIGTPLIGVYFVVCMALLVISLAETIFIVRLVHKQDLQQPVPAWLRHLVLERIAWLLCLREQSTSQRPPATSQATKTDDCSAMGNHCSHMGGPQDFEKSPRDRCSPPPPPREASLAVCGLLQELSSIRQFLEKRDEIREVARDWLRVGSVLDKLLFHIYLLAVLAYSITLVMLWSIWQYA

mice [4] = test: Forced swimming test (FST) in mice; format: in vivo; conditions: Mus musculus
Procedure: as §1, §2
Forced Swimming Test (FST): in the forced swimming apparatus, the water level is 45 cm, and the water temperature is 25° C. Before the experiment, the mice were placed in the experimental room for 1 h for adapting to the environment. At the beginning of the experiment, the mice were placed in the apparatus for 6min, and the whole process was recorded with a camera. When analyzing the data, only the immobility time of the mice in the last 4 min was counted, and the result was expressed by mean±SD.
as §3

[5] = TST, dose significantly reducing immobility time of mice, read-out: Effective dose
[6] = read-out: Effective dose (mg/kg)
[7] = po, read-out: Effective dose (mg/kg)
[8] = ip, read-out: Effective dose (mg/kg)
[9] = 1 μM compound, 0.5 nM 3H-BRL 43694, HEK293 membranes

T1 sequence (P31645 whole entry): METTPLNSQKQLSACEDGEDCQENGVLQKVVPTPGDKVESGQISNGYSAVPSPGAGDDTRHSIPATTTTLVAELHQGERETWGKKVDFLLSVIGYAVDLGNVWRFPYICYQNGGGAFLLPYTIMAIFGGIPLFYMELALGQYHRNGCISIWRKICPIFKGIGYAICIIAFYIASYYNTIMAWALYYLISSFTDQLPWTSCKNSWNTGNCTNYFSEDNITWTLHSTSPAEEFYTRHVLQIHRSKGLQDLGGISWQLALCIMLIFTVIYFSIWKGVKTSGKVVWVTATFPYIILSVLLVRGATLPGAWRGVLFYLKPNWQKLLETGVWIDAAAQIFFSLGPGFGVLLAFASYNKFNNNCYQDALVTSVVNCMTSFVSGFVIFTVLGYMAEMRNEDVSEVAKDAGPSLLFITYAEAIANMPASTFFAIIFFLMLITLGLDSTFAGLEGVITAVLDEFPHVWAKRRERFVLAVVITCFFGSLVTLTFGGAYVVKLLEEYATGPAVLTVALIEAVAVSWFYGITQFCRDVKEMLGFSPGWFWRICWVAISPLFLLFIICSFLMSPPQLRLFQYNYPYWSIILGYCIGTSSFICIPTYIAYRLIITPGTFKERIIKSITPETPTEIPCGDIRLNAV

Compound | IC50 [1] [nM] | minimal effective dose (mice [2]; [5]) [mg/kg] | inhibition at 1 µM [3] [%] | minimal effective dose (mice [2]; [6]) [mg/kg] | minimal effective dose (mice [4]; [7]) [mg/kg] | minimal effective dose (mice [4]; [8]) [mg/kg] | inhibition at 1 µM [3, 9] [%] | minimal effective dose (mice [4]; po, FST, dose significantly reducing immobility time of mice, read-out: Effective dose) [mg/kg]
O=C(O)/C=C\C(=O)O.c1cc(N2CCC3CNCC3CC2)c2sccc2c1 (stereo not drawn) [Example 36, 6-(Benzo[b]thiophen-7-yl)decahydropyrrolo[3,4-d]azepine maleate] | < 10 | 10 | 89 |  |  |  |  | 
CCN1CC2CN(c3ccc4ccccc4c3)CC2C1.O=C(O)C(=O)O (stereo not drawn) [Example 25, 2-ethyl-5-(naphthalen-2-yl)octahydropyrrolo[3,4-c]pyrrole oxalate] |  | 10 |  |  |  |  |  | 
O=C(O)/C=C\C(=O)O.c1ccc2sc(N3CC4CNCC4C3)cc2c1 (stereo not drawn) [Example 22, 2-(Benzo[b]thiophen-2-yl)octahydropyrrolo[3,4-c]pyrrole maleate] | < 50 |  |  | 10 |  |  |  | 
O=C(O)/C=C\C(=O)O.c1ccc2cc(N3CCC4CNCC4CC3)ccc2c1 (stereo not drawn) [Example 39, 6-(naphthalen-2-yl)decahydropyrrolo[3,4-d]azepine maleate] | < 10 | 10 | 92 |  |  |  |  | 
Fc1c(N2CC3CNCC3C2)ccc2ccccc12.O=C(O)/C=C\C(=O)O (stereo not drawn) [Example 31, 2-(1-fluoronaphthalen-2-yl)octahydropyrrolo[3,4-c]pyrrole maleate] | < 10 |  | 101 |  | 20 |  |  | 
O=C(O)/C=C\C(=O)O.c1cc(N2CC3CCNCCC3C2)c2ccsc2c1 (stereo not drawn) [Example 41, 2-(Benzo[b]thiophen-4-yl)decahydropyrrolo[3,4-d]azepine maleate] | < 10 | 10 | 86 |  |  |  |  | 
O=C(O)/C=C\C(=O)O.c1cc2cc(N3CC4CNCC4C3)ccc2s1 (stereo not drawn) [Example 14, 2-(Benzo[b]thiophen-5-yl)octahydropyrrolo[3,4-c]pyrrole maleate] | < 10 |  | 99 |  |  | 3 |  | 
CN1CC2CN(c3ccc4ccccc4c3)CC2C1 (stereo not drawn) [Example 2, 2-methyl-5-(naphthalen-2-yl)octahydropyrrolo[3,4-c]pyrrole] | < 10 |  |  |  | 5 |  | 97 | 
c1cc2cc(N3CCC4CNCC4CC3)ccc2s1 (stereo not drawn) [Example 7, 6-(Benzothiophen-5-yl)decahydropyrrolo[3,4-d]azepine maleate] | < 10 | 10 | 101 |  |  |  |  | 
CN1CC2CN(c3ccc4sccc4c3)CC2C1.Cl (stereo not drawn) [Example 15, 2-(Benzo[b]thiophen-5-yl)-5-methyloctahydropyrrolo[3,4-c]pyrrole hydrochloride] | < 10 |  |  |  | 2.5 |  | 70 | 
Clc1ccc(N2CCC3CNCC3CC2)cc1Cl (stereo not drawn) [Example 35, 6-(3,4-dichlorophenyl)decahydropyrrolo[3,4-d]azepine] | < 10 |  |  |  | 20 |  | 98 | 
O=C(O)/C=C\C(=O)O.c1cc(N2CC3CNCC3C2)c2sccc2c1 (stereo not drawn) [Example 10, 2-(Benzo[b]thiophen-7-yl)octahydropyrrolo[3,4-c]pyrrole maleate] | < 50 |  | 86 |  |  | 10 |  | 
CN1CC2CN(c3cccc(Cl)c3Cl)CC2C1.O=C(O)C(=O)O (stereo not drawn) [Example 28, 2-(2,3-dichlorophenyl)-5-methyloctahydropyrrolo[3,4-c]pyrrole oxalate] | < 200 |  | 82 | 10 |  |  |  | 
CN1CC2CN(c3ccc4ccccc4c3F)CC2C1.O=C(O)/C=C\C(=O)O (stereo not drawn) [Example 32, 2-(1-fluoronaphthalen-2-yl)-5-methyloctahydropyrrolo[3,4-c]pyrrole maleate] | < 10 |  | 103 |  |  |  |  | 20
Br.CN1CC2CN(c3cccc4sccc34)CC2C1 (stereo not drawn) [Example 13, 2-(Benzo[b]thiophen-4-yl)-5-methyloctahydropyrrolo[3,4-c]pyrrole hydrobromide] | < 50 |  | 70 |  |  | 5 |  | 
CN1CC2CN(c3ccc(Cl)c(Cl)c3)CC2C1 (stereo not drawn) [Example 17, 2-(3,4-dichlorophenyl)-5-methyloctahydropyrrolo[3,4-c]pyrrole] | < 10 |  |  |  | 5 |  | 93 | 
c1ccc2cc(N3CC4CNCC4C3)ccc2c1 (stereo not drawn) [Example 1, 2-(naphthalen-2-yl)octahydropyrrolo[3,4-c]pyrrole] | < 10 |  | 106 |  | 5 |  |  | 
Clc1ccc(N2CC3CNCC3C2)cc1Cl (stereo not drawn) [Example 16, 2-(3,4-dichlorophenyl)octahydropyrrolo[3,4-c]pyrrole] | < 10 |  |  |  |  | 3 | 96 | 
Cl.c1ccc2cc(C3CC4CNCC4C3)ccc2c1 (stereo not drawn) [Example 55, 5-(naphthalen-2-yl)octahydrocyclopenta[c]pyrrole hydrochloride] | < 10 |  |  |  | 5 |  | 75 | 
Clc1cccc(N2CCC3CNCC3CC2)c1Cl.O=C(O)/C=C\C(=O)O (stereo not drawn) [Example 37, 6-(2,3-dichlorophenyl)decahydropyrrolo[3,4-d]azepine maleate] | < 10 |  | 80 |  |  | 10 |  | 
O=C(O)/C=C\C(=O)O.c1cc(N2CCC3CNCC3CC2)c2ccsc2c1 (stereo not drawn) [Example 38, 6-(Benzo[b]thiophen-4-yl)decahydropyrrolo[3,4-d]azepine maleate] | < 10 | 10 | 103 |  |  |  |  | 

Source: US20220227773A1, “FUSED RING COMPOUND, PREPARATION METHOD THEREFOR AND USE THEREOF” (SHANGHAI INSTITUTE OF MATERIA MEDICA, CHINESE ACADEMY OF …, priority 2019, published 2022)
